18 compounds from patent publication US12102648B2, “Orally-bioavailable nucleoside analogs” (priority 2021, dated 2024) can be followed below.

A short description of this data set: in vitro. In kind it is in vitro ADME. The conditions noted are these: human. The gist of the method:
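Caco-2 monolayers cultured 19 days on inserts (TEER >600 […]); bidirectional A-to-B and B-to-A transport at 37° C over 90 min, samples quantified by LC/MS/MS. Papp, efflux ratio and recovery calculated; ER >2 flags potential efflux substrates.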

[1] abbreviates: Caco-2 monolayer, apical to basolateral, 90-minute incubation, read-out: Papp, A-B.
The mark [2] stands for this setting: Caco-2 monolayer, basolateral to apical, 90-minute incubation, read-out: Papp, B-A.
Setting [3] is: Caco-2 monolayer, ER>2 indicates potential efflux transporter substrate, read-out: ER (efflux ratio).

Where two headings read alike, the source gives them in different places.

On to `CCCC(=O)Nc1ncnn2c([C@]3(C#N)O[C@H](COC(=O)CC4(N)CCCCC4)[C@@H](O)[C@H]3O)ccc12` [Compound 354, ((2R,3S,4R,5R)-5-(4-butyramidopyrrolo[2,1-f][1,2,4]triazin-7-yl)-5-cyano-3,4-dihydroxytetrahydrofuran-2-yl)methyl 2-(1-aminocyclohexyl)acetate], for which, under “Caco-2”, the Papp A→B (commonly the apparent permeability from the apical to the basolateral side of a cell layer) at 90 min turned out to be 10 ×10⁻⁶ cm/s; the Papp B→A – broadly, how fast a substance crosses the layer from the basolateral side – at 90 min was determined as 3 ×10⁻⁶ cm/s; the efflux ratio at 90 min was 0.29.

`CC(=O)OCOC(=O)Nc1ncnn2c([C@]3(C#N)O[C@H](COC(=O)Cc4ccccc4)[C@@H](OC(=O)[C@@H](N)C(C)C)[C@H]3O)ccc12` [Compound 355, (2R,3S,4R,5R)-5-(4-(((acetoxymethoxy)carbonyl)amino)pyrrolo[2,1-f][1,2,4]triazin-7-yl)-5-cyano-4-hydroxy-2-((2-phenylacetoxy)methyl)tetrahydrofuran-3-yl L-valinate]: under setting [1], the Papp A→B at 90 min is 1.5 ×10⁻⁶ cm/s. Also, under setting [2], the Papp B→A at 90 min is 0.49 ×10⁻⁶ cm/s. Under setting [3], the efflux ratio at 90 min was 0.33.

Regarding `CC(C)[C@H](N)C(=O)O[C@H]1[C@@H](OC(=O)[C@@H](N)C(C)C)[C@](C#N)(c2ccc3c(N)ncnn23)O[C@@H]1COC(=O)CC1CCCCC1` [Compound 356, (2R,3R,4R,5R)-2-(4-aminopyrrolo[2,1-f][1,2,4]triazin-7-yl)-2-cyano-5-((2-cyclohexylacetoxy)methyl)tetrahydrofuran-3,4-diyl (2S,2'S)-bis(2-amino-3-methylbutanoate)], where the note is “Caco-2”, the Papp A→B at 90 min stood at 0.6 ×10⁻⁶ cm/s, the Papp B→A at 90 min came to 3.6 ×10⁻⁶ cm/s and the efflux ratio at 90 min was 6.

In the case of `CCCC(=O)Nc1ncnn2c([C@]3(C#N)O[C@H](COC(=O)[C@@H](N)C(C)C)[C@@H](OC(=O)CC)[C@H]3O)ccc12` [Compound 357, ((2R,3S,4R,5R)-5-(4-butyramidopyrrolo[2,1-f][1,2,4]triazin-7-yl)-5-cyano-4-hydroxy-3-(propionyloxy)tetrahydrofuran-2-yl)methyl L-valinate], where the note is “Caco-2”, the Papp A→B at 90 min came out at 3.1 ×10⁻⁶ cm/s, the Papp B→A at 90 min was determined as 6 ×10⁻⁶ cm/s and the efflux ratio at 90 min was determined as 1.9.

As to `CC(=O)OCOC(=O)Nc1ncnn2c([C@]3(C#N)O[C@H](COC(=O)CC4CCCCC4)[C@@H](OC(=O)[C@@H](N)C(C)C)[C@H]3O)ccc12` [Compound 358, (2R,3S,4R,5R)-5-(4-(((acetoxymethoxy)carbonyl)amino)pyrrolo[2,1-f][1,2,4]triazin-7-yl)-5-cyano-2-((2-cyclohexylacetoxy)methyl)-4-hydroxytetrahydrofuran-3-yl L-valinate], under “Caco-2”, the Papp A→B at 90 min is 0.3 ×10⁻⁶ cm/s, the Papp B→A at 90 min amounted to 0.1 ×10⁻⁶ cm/s and the efflux ratio at 90 min amounted to 0.33.

On to `CC(C)[C@H](N)C(=O)O[C@H]1[C@@H](O)[C@](C#N)(c2ccc3c(NC(=O)OCOC(=O)C(C)(C)C)ncnn23)O[C@@H]1COC(=O)Cc1ccccc1` [Compound 360, (2R,3S,4R,5R)-5-cyano-4-hydroxy-2-((2-phenylacetoxy)methyl)-5-(4-((((pivaloyloxy)methoxy)carbonyl)amino)pyrrolo[2,1-f][1,2,4]triazin-7-yl)tetrahydrofuran-3-yl L-valinate], for which, under setting [1], the Papp A→B at 90 min worked out at 0.49 ×10⁻⁶ cm/s. Also, the Papp B→A at 90 min under setting [2] was 0.16 ×10⁻⁶ cm/s. Moreover, under setting [3], the efflux ratio at 90 min was determined as 0.33.

Turning to `CC(C)[C@H](N)C(=O)O[C@H]1[C@@H](O)[C@](C#N)(c2ccc3c(NC(=O)OCOC(=O)C(C)(C)C)ncnn23)O[C@@H]1COC(=O)CC1CCCCC1` [Compound 361, (2R,3S,4R,5R)-5-cyano-2-((2-cyclohexylacetoxy)methyl)-4-hydroxy-5-(4-((((pivaloyloxy)methoxy)carbonyl)amino)pyrrolo[2,1-f][1,2,4]triazin-7-yl)tetrahydrofuran-3-yl L-valinate], under “Caco-2”, the Papp A→B at 90 min is 0.15 ×10⁻⁶ cm/s, the Papp B→A at 90 min stood at 0.05 ×10⁻⁶ cm/s and the efflux ratio at 90 min stood at 0.33.

Take `CCC(=O)O[C@H]1[C@@H](O)[C@](C#N)(c2ccc3c(NC(=O)C(C)C)ncnn23)O[C@@H]1COC(=O)[C@@H](N)C(C)C` [Compound 362, ((2R,3S,4R,5R)-5-cyano-4-hydroxy-5-(4-isobutyramidopyrrolo[2,1-f][1,2,4]triazin-7-yl)-3-(propionyloxy)tetrahydrofuran-2-yl)methyl L-valinate]: under “Caco-2”, the Papp A→B at 90 min amounted to 4.6 ×10⁻⁶ cm/s, the Papp B→A at 90 min turned out to be 6.7 ×10⁻⁶ cm/s and the efflux ratio at 90 min turned out to be 1.5.

On to `CC(=O)OCOC(=O)Nc1ncnn2c([C@]3(C#N)O[C@H](COC(=O)CC4(N)CCCCC4)[C@@H](O)[C@H]3O)ccc12` [Compound 363, ((2R,3S,4R,5R)-5-(4-(((acetoxymethoxy)carbonyl)amino)pyrrolo[2,1-f][1,2,4]triazin-7-yl)-5-cyano-3,4-dihydroxytetrahydrofuran-2-yl)methyl 2-(1-aminocyclohexyl)acetate], for which, under “Caco-2”, the Papp A→B at 90 min stood at 0.07 ×10⁻⁶ cm/s, the Papp B→A at 90 min amounted to 0.02 ×10⁻⁶ cm/s and the efflux ratio at 90 min was 0.33.

On to `CCC(=O)O[C@H]1[C@@H](O)[C@](C#N)(c2ccc3c(NC(=O)OCOC(C)=O)ncnn23)O[C@@H]1COC(=O)[C@@H](N)C(C)C` [Compound 364, ((2R,3S,4R,5R)-5-(4-(((acetoxymethoxy)carbonyl)amino)pyrrolo[2,1-f][1,2,4]triazin-7-yl)-5-cyano-4-hydroxy-3-(propionyloxy)tetrahydrofuran-2-yl)methyl L-valinate], for which, where the note is “Caco-2”, the Papp A→B at 90 min is 1.8 ×10⁻⁶ cm/s, the Papp B→A at 90 min stood at 2 ×10⁻⁶ cm/s and the efflux ratio at 90 min was found to be 1.1.

`CCC(=O)O[C@H]1[C@@H](O)[C@](C#N)(c2ccc3c(NC(=O)OCOC(=O)C(C)(C)C)ncnn23)O[C@@H]1COC(=O)[C@@H](N)C(C)C` [Compound 365, ((2R,3S,4R,5R)-5-cyano-4-hydroxy-5-(4-((((pivaloyloxy)methoxy)carbonyl)amino)pyrrolo[2,1-f][1,2,4]triazin-7-yl)-3-(propionyloxy)tetrahydrofuran-2-yl)methyl L-valinate]: under “Caco-2”, the Papp A→B at 90 min amounted to 1.5 ×10⁻⁶ cm/s, the Papp B→A at 90 min was determined as 4.1 ×10⁻⁶ cm/s and the efflux ratio at 90 min worked out at 2.8.

With `CC(=O)OCOC(=O)OC[C@H]1O[C@@](C#N)(c2ccc3c(NC(=O)[C@@H](N)Cc4ccc(F)cc4)ncnn23)[C@H](O)[C@@H]1O` [Compound 366, (((((2R,3S,4R,5R)-5-(4-((S)-2-amino-3-(4-fluorophenyl)propanamido)pyrrolo[2,1-f][1,2,4]triazin-7-yl)-5-cyano-3,4-dihydroxytetrahydrofuran-2-yl)methoxy)carbonyl)oxy)methyl acetate], where the note is “Caco-2”, the Papp A→B at 90 min came out at 2.7 ×10⁻⁶ cm/s, the Papp B→A at 90 min was found to be 1.1 ×10⁻⁶ cm/s and the efflux ratio at 90 min came to 0.39.

As for `CC(C)(C)C(=O)OCOC(=O)Nc1ncnn2c([C@]3(C#N)O[C@H](COC(=O)CC4(N)CCCCC4)[C@@H](O)[C@H]3O)ccc12` [Compound 367, (((7-((2R,3R,4S,5R)-5-((2-(1-aminocyclohexyl)acetoxy)methyl)-2-cyano-3,4-dihydroxytetrahydrofuran-2-yl)pyrrolo[2,1-f][1,2,4]triazin-4-yl)carbamoyl)oxy)methyl pivalate], for the setting “Caco-2”, the Papp A→B at 90 min was 2.8 ×10⁻⁶ cm/s, the Papp B→A at 90 min stood at 1.6 ×10⁻⁶ cm/s and the efflux ratio at 90 min amounted to 0.57.

For `N#C[C@@]1(c2ccc3c(N)ncnn23)O[C@H](COC(=O)CC2(N)CCCCC2)[C@@H](OC(=O)CC2CCCCC2)[C@H]1O` [Compound 368, (2R,3S,4R,5R)-2-((2-(1-aminocyclohexyl)acetoxy)methyl)-5-(4-aminopyrrolo[2,1-f][1,2,4]triazin-7-yl)-5-cyano-4-hydroxytetrahydrofuran-3-yl 2-cyclohexylacetate], for the setting “Caco-2”, the Papp A→B at 90 min came out at 1.4 ×10⁻⁶ cm/s, the Papp B→A at 90 min was determined as 18 ×10⁻⁶ cm/s and the efflux ratio at 90 min stood at 13.

For `CC(C)(C)C(=O)OCOC(=O)Nc1ncnn2c([C@]3(C#N)O[C@H](CO)[C@@H](OC(=O)CC4CCCCC4)[C@H]3O)ccc12` [Compound 370, (((7-((2R,3R,4S,5R)-2-cyano-4-(2-cyclohexylacetoxy)-3-hydroxy-5-(hydroxymethyl)tetrahydrofuran-2-yl)pyrrolo[2,1-f][1,2,4]triazin-4-yl)carbamoyl)oxy)methyl pivalate], under “Caco-2”, the Papp A→B at 90 min worked out at 0.3 ×10⁻⁶ cm/s, the Papp B→A at 90 min stood at 0.23 ×10⁻⁶ cm/s and the efflux ratio at 90 min came to 0.77.

For the compound `CC(C)(C)[C@H](N)C(=O)OC[C@H]1O[C@@](C#N)(c2ccc3c(N)ncnn23)[C@H](O)[C@@H]1OC(=O)CC1CCCCC1` [Compound 371, ((2R,3S,4R,5R)-5-(4-aminopyrrolo[2,1-f][1,2,4]triazin-7-yl)-5-cyano-3-(2-cyclohexylacetoxy)-4-hydroxytetrahydrofuran-2-yl)methyl (S)-2-amino-3,3-dimethylbutanoate], under “Caco-2”, the Papp A→B at 90 min was 15 ×10⁻⁶ cm/s, the Papp B→A at 90 min stood at 21 ×10⁻⁶ cm/s and the efflux ratio at 90 min came to 1.3.

On to `N#C[C@@]1(c2ccc3c(N)ncnn23)O[C@H](COC(=O)[C@@H](N)Cc2ccccc2)[C@@H](OC(=O)CC2CCCCC2)[C@H]1O` [Compound 372, ((2R,3S,4R,5R)-5-(4-aminopyrrolo[2,1-f][1,2,4]triazin-7-yl)-5-cyano-3-(2-cyclohexylacetoxy)-4-hydroxytetrahydrofuran-2-yl)methyl L-phenylalaninate], for which, for the setting “Caco-2”, the Papp A→B at 90 min was 0.73 ×10⁻⁶ cm/s, the Papp B→A at 90 min is 0.83 ×10⁻⁶ cm/s and the efflux ratio at 90 min was 1.1.

In the case of `CC(=O)Nc1ncnn2c([C@]3(C#N)O[C@H](COC(=O)[C@@H](N)C(C)(C)C)[C@@H](OC(=O)CC4CCCCC4)[C@H]3O)ccc12` [Compound 373, ((2R,3S,4R,5R)-5-(4-acetamidopyrrolo[2,1-f][1,2,4]triazin-7-yl)-5-cyano-3-(2-cyclohexylacetoxy)-4-hydroxytetrahydrofuran-2-yl)methyl (S)-2-amino-3,3-dimethylbutanoate], where the note is “Caco-2”, the Papp A→B at 90 min was found to be 24 ×10⁻⁶ cm/s, the Papp B→A at 90 min stood at 29 ×10⁻⁶ cm/s and the efflux ratio at 90 min was 1.2.
